# Measurements as given in patent publication US20070043114A1, “Nerve regeneration promoters” (priority 2003, published 2007).
# Columns and labels:
# [1] = system: astrocytes derived from cerebral cortex of rats; assay: differentiation test of astrocytes derived from cerebral cortex of rats; type: cell-based, rats of Wistar strain; settings: for positive cell numbers per visual field stained by an anti-βIII-tubulin antibody: differentiated seven days, no compound-added group 93±10.9
# Protocol: Cerebrum was excised from newly-born rats of Wistar strain and, after removal of meninx under a stereoscopic microscope, it was ground with a frost part of a slide glass with frost in an ice-cooled DMEM medium to prepare a suspension. Centrifugal separation was conducted at 100×g for 3 minutes and the precipitate was suspended in a 10% bovine fetal serum-DMEM medium and sown in a 75-cm^2 flask. After two days from the start of culturing, cell purification was conducted. On the 19th day from the start of the culturing, astrocytes were recovered using 0.05% trypsin/EDTA and the cells were suspended again using a differentiation medium (a DMEM/F12 medium (Gibco) containing N2 additive (N2 Plus Supplement; R&D Systems) and 1% fetal bovine serum (manufactured by Dainippon Pharmaceutical). That was sown on a chamber slide and, on the next day, the culturing solution was exchanged to a differentiated medium (a DMEM/F12 medium comprising N2 additive, antibiotic and 1% fetal bovine serum) containing a test compound. After differentiating for seven days, fixation was conducted using 4% paraformaldehyde and the following immunostaining was conducted. With regard to nerve cells prepared by differentiation of astrocytes derived from cerebral cortex of rats, their differentiation stage was confirmed by means of immunostaining. Incidentally, anti-βIII-tubulin antibody and anti-doublecortin antibody were used for confirmation of young nerve cells; anti-MAP2 antibody, anti-NeuN antibody and anti-NSE antibody were used for confirmation of mature nerve cells; and anti-GABA antibody was used for confirmation of functional nerve cells.
# [2] = system: sciatic nerve; settings: mature rat, axon of sciatic nerve cut; Brain Research 975, 229-236 (2003); cited from earlier work
# [3] = dog, in vivo, 100 mg/kg
# Text: Toxicity of the compound of the present invention is sufficiently low and has been confirmed to be sufficiently safe for using as a medicament.
# [4] = system: four-vein ligated (4VO) rat model; assay: 4VO rat model: BrdU and NeuN double immunostaining, hippocampus CA1 region; type: in vivo, rat of Wistar strain; settings: 4VO rats, 10 mg/kg oral once daily for 40 days from 8th day after 4VO, n=13
# Protocol: (§1) A four-vein ligated (4VO) rat model was prepared by a partially modified method by Prusinery, et al. (J. Cereb. Blood Flow Metab., 16, 973-980 […]). Thus, vertebral arteries on both sides of male rat of Wistar strain were permanently obstructed and, on the next day, whole carotid artery was exposed and was temporally obstructed for 10 minutes using a clip. Rats where no response was noted immediately after obstruction of whole carotid arteries on both sides and forward-facing response disappeared were used for the experiment.
# Evaluation of nerve cell regeneration was conducted by preparing brain tissue sample by Nissl staining and counting nerve cell numbers in right and left hippocampus CA1 regions.
# Confirmation of the fact that […] nerve cells increased in Example 1-A-2-1 were regenerated nerve cells was conducted by preparing a brain tissue sample immunostained with BrdU and NeuN and counting nerve cell numbers which were positive to double staining in right and left hippocampus CA1 region. […] Nerve cell numbers which were positive to double staining were calculated as number per unit length (mm) using nerve cell layer length of the hippocampus CA1 region and nerve cell numbers which were positive to double staining.
# [5] = system: four-vein ligated (4VO) rat model; assay: 4VO rat model: water maze learning test; type: in vivo, rat of Wistar strain; settings: 4VO rats; for successful times compared with the control group (χ2 test): fourth session, p<0.05
# Protocol: as §1
# A four-vein ligated (4VO) rat model was prepared according to a method mentioned in Example 1-A-1 and subjected to the following test.
# In the water maze learning test, a black circular pool (manufactured by Neuroscience) of 150 cm diameter and 50 cm height was used. The pool was filled with tap water of about 23° C. to a height of about 30 cm (platform surface was about 1 cm beneath the water surface). The platform (made of colorless and transparent acrylate; circular shape having 10 cm diameter) which was to be a goal was placed in a distance of about 35 cm from the inner wall of the pool. During the test period, positions of things which were hints for recognition of space such as racks, illumination instruments and persons who conducted the experiments were made constant and illumination level was made constant as well.
# Rats on the third day after completion of repetitive administrations were allowed to stand at a starting position and the time until they climbed up to the platform (escape latency (seconds)) was measured. Maximum swimming time for climbing up to the platform was made 90 seconds and, when a rat climbed up to the plant form, it was allowed to stand there for about 30 seconds and then returned to a cage. When a rat was unable to climb up to the platform within a measuring time of 90 seconds, the rat was taken out from water, transferred onto the platform, allowed to stand there for about 30 seconds and returned to the cage. Incidentally, the escape latency at that time was counted as 90 seconds. Interval between trials was made about 30 minutes, four trials were conducted a day and they were defined as one session. Such a session was conducted for continued four days and (1) escape latency and (2) successful times (times of being able to reach the platform during four trials) were evaluated.
# [6] = system: four-vein ligated (4VO) rat model; assay: 4VO rat model: histological observation (Nissl-stained specimen), hippocampus CA1 nerve cell numbers; type: in vivo, rat of Wistar strain; settings: 4VO rats, 1 mg/kg oral
# Protocol: as §1
# A four-vein ligated (4VO) rat model was prepared according to a method mentioned in Example 1-A-1 and subjected to the following test. […]
# With regard to the specimens for histopathological test, three kinds of specimens, i.e. (1) Nissl-stained specimen (a site of 5.7 mm from interaural line), (2) specimen stained with hematoxylin-eosin and (3) unstained specimen (thickness: 10 μm) were prepared for brain tissue sample from one animal. Among them, with regard to the Nissl-stained specimen, right and left hippocampus CA1 nerve cell layer lengths and nerve cell numbers were measured by using Image Analyzer (MCID Elite 7.0 Rev.1.0) and numbers per unit length (mm) were calculated to conduct a histological evaluation.
# [7] = system: nerve stem cells derived from striatum of a rat; assay: differentiation test of stem cells derived from fetal brain of rats; type: cell-based, rat of Wistar strain; settings: 30 μmol/L
# Protocol: Fetus was taken out from a pregnant rat of Wistar strain and striatum was excised from brain of the fetus. Cells were dispersed by means of pipetting and incubated for six to seven days in a growth medium (a DMEM/F12 medium (manufactured by Gibco) containing N2 additive (N2 Plus Supplement; R&D Systems), antibiotics, basic fibroblast growth factor (20 ng/mL bFGF; manufactured by R&D Systems) and epithelial cell growth factor (20 ng/mL EGF; manufactured by R&D Systems). The resulting neurospheres were recovered, cells were dispersed by means of pipetting and culturing was conducted for six to seven days more using a growth medium. Neurospheres which were produced again were recovered and, after cells were dispersed, they were cultured on a chamber slide subjected to a poly-L-ornithine coating. After incubating for 24 hours, exchange to a differentiated medium comprising a test compound (a DMEM/F12 medium comprising N2 additive, antibiotic and 1% fetal bovine serum) was conducted. After differentiating for seven days, fixation was conducted with 4% paraformaldehyde and a immunostaining was conducted using a mouse anti-βIII-tubulin antibody (second antibody: FITC-labeled anti-mouse IgG antibody) which is to be an index for differentiation from nerve stem cells to nerve cells).
# For example, when 30 μmol/L of (2R)-2-propyloctanoic acid was used, the cell numbers in the no compound-added group were 8±1.3 (in eight visual fields) while those in the group to which the compound was added were 31±4.6 (in eight visual fields).
# With regard to the above nerve cells prepared by differentiation of nerve stem cells derived from striatum of rats, their differentiation stage was confirmed by means of immunostaining. Incidentally, for the confirmation of mature nerve cells, anti-MAP2 antibody was used while, for the confirmation of functional nerve cells, anti-GABA antibody was used.
compound,measurement,setting,value
CCCC(CCC)C(=O)O [2-propylpentanoic acid],positive cell numbers per visual field stained by an anti-βIII-tubulin antibody,[1]; 300 μmol/L,174.8±7.8
same,axon elongation and recovery of kinetic function,[2],the axon is elongated and kinetic function is recovered
CCCCCC[C@@H](CCC)C(=O)O [(2R)-2-propyloctanoic acid],dead cases,[3],no dead case was noted
same,"cells positive to double staining (anti-BrdU and anti-NeuN) per mm, hippocampus CA1 region",[4],5.7±1.2 cells/mm
same,Escape latency,"[5]; 1 mg/kg oral, session 1",68.2 ± 3.5 s
same,Escape latency,"[5]; 1 mg/kg oral, session 2",61.8 ± 4.4 s
same,Escape latency,"[5]; 1 mg/kg oral, session 3",52.5 ± 6.9 s
same,Escape latency,"[5]; 1 mg/kg oral, session 4",46.9 ± 7.6 s
same,successful times compared with the control group (χ2 test),[5]; 3 mg/kg oral,significant difference
same,Escape latency,"[5]; 3 mg/kg oral, session 1",63.2 ± 3.8 s
same,Escape latency,"[5]; 3 mg/kg oral, session 2",48.7 ± 5.5 s
same,Escape latency,"[5]; 3 mg/kg oral, session 3",42.8 ± 6.4 s
same,successful times compared with the control group (χ2 test),[5]; 10 mg/kg oral,significant difference
same,Escape latency,"[5]; 10 mg/kg oral, session 1",66.8 ± 3.7 s
same,Escape latency,"[5]; 10 mg/kg oral, session 2",44.5 ± 4.5 s
same,Escape latency,"[5]; 10 mg/kg oral, session 3",41.4 ± 5.2 s
same,"Nerve cell density, hippocampus CA1 region",[6],45.0 ± 5.6 cells/mm
same,βIII-tubulin-positive (Tuj1+) cell numbers per visual field,"[7]; differentiated seven days, eight visual fields, 100 magnifications, no compound-added group 8±1.3",31±4.6
same,positive cell numbers per visual field stained using an anti-GABA antibody,[7]; no compound-added group 19±2.7,101±9.5
same,positive cell numbers per visual field stained using an anti-MAP2 antibody,[7]; no compound-added group 34±0.9,50±7.4
same,positive cell numbers per visual field stained by an anti-βIII-tubulin antibody,[1]; 30 μmol/L,177±11.8
same,positive cell numbers stained by an anti-GABA antibody,"[1]; 30 μmol/L, no compound-added group 20±1.0",60±8.8
same,positive cell numbers stained by an anti-MAP2 antibody,"[1]; 30 μmol/L, no compound-added group 50±7.4",104±10.3
same,positive cell numbers stained by an anti-doublecortin antibody,"[1]; 30 μmol/L, no compound-added group 55±5.7",168±16.6
same,positive cell numbers stained by an anti-NeuN antibody,"[1]; 30 μmol/L, no compound-added group 106",199
same,positive cell numbers stained by an anti-NSE antibody,"[1]; 30 μmol/L, no compound-added group 108",166
same,positive cell numbers per visual field stained by an anti-βIII-tubulin antibody,[1]; 100 μmol/L,230±11.0
